Source: PubChem BioAssay (NCI)
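Grown in 96-well plates, cells were treated for 48 hours with each compound at five concentrations. Insufficient inhibition: endpoint recorded as highest concentration tested. TGI is the concentration that stops growth completely.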

Columns and labels:
Assay in all cases: inhibition of tumour cell growth, NCI panel, 48 h
[1] = test system: COLO 205 colon
[2] = test system: HOP-62 NSCLC
[3] = test system: OVCAR-8 ovarian
[4] = test system: NCI-H23 lung
[5] = test system: MOLT-4 leukemia
[6] = test system: NCI-H226 lung
[7] = test system: BT-549 breast
[8] = test system: KM12 colon
[9] = test system: OVCAR-5 ovarian
[10] = test system: NCI/ADR-RES ovarian
[11] = test system: SK-OV-3 ovarian
[12] = test system: SF-539 CNS
[13] = test system: K-562 leukemia
[14] = test system: NCI-H522 lung
[15] = test system: ACHN renal
[16] = test system: TK-10 renal
[17] = test system: HCC-2998 colon
[18] = test system: MDA-MB-435
[19] = test system: T-47D breast
[20] = test system: SF-268 CNS
[21] = test system: SK-MEL-2 melanoma
[22] = test system: CCRF-CEM leukemia
[23] = test system: HCT-116 colon
[24] = test system: 786-0 renal
[25] = test system: LOX IMVI melanoma
[26] = test system: HOP-92 NSCLC
[27] = test system: NCI-H460 lung
[28] = test system: A498 renal
[29] = test system: MDA-MB-231 breast
[30] = test system: SNB-19 CNS
[31] = test system: UACC-62 melanoma
[32] = test system: DU-145 prostate
[33] = test system: U251 CNS
[34] = test system: OVCAR-3 ovarian
[35] = test system: MCF7 breast
[36] = test system: SW-620 colon
[37] = test system: SF-295 CNS
[38] = test system: RXF 393 renal
[39] = test system: RPMI-8226 leukemia
[40] = test system: HT29 colon
[41] = test system: HS 578T breast
[42] = test system: A549 NSCLC
[43] = test system: UO-31 renal
[44] = test system: HCT-15 colon
[45] = test system: M14 melanoma
[46] = test system: SNB-75 CNS
[47] = test system: MALME-3M melanoma
[48] = test system: CAKI-1 renal
[49] = test system: PC-3 prostate
[50] = test system: SK-MEL-5 melanoma
[51] = test system: SN12C renal
[52] = test system: MDA-N
[53] = test system: HL-60(TB) leukemia
[54] = test system: SK-MEL-28 melanoma
[55] = test system: UACC-257 melanoma
[56] = test system: SR leukemia
[57] = test system: OVCAR-4 ovarian
[58] = test system: EKVX NSCLC
[59] = test system: IGROV1 ovarian

Cc1ccc(-c2cc(-c3ccc(Cl)cc3)nc(/N=C3\C(=O)N(CN4CCOCC4)c4ccc(Cl)cc43)n2)cc1
TGI [1]: 49.7 µM
TGI [2]: 51.8 µM
TGI [3]: 55.4 µM
TGI [4]: 57.6 µM
TGI [5]: 57 µM
TGI [6]: > 100 µM
TGI [7]: > 100 µM
TGI [8]: 56.8 µM
TGI [9]: > 100 µM
TGI [10]: 61.3 µM
TGI [11]: 84.4 µM
TGI [12]: 59.5 µM
TGI [13]: 90.9 µM
TGI [14]: 36.7 µM
TGI [15]: 48.5 µM
TGI [16]: 72.2 µM
TGI [17]: 36.5 µM
TGI [18]: 65.9 µM
TGI [19]: 79.8 µM
TGI [20]: 88.1 µM
TGI [21]: 39.9 µM
TGI [22]: > 100 µM
TGI [23]: 40.9 µM
TGI [24]: 44.5 µM
TGI [25]: > 100 µM
TGI [26]: 62.2 µM
TGI [27]: 81.2 µM
TGI [28]: 56.7 µM
TGI [29]: > 100 µM
TGI [30]: > 100 µM
TGI [31]: 93.2 µM
TGI [32]: 47.7 µM
TGI [33]: 36.3 µM
TGI [34]: > 100 µM
TGI [35]: 79.2 µM
TGI [36]: > 100 µM
TGI [37]: > 100 µM
TGI [38]: 26.9 µM
TGI [39]: > 100 µM
TGI [40]: 43.6 µM
TGI [41]: > 100 µM
TGI [42]: > 100 µM
TGI [43]: 60.3 µM
TGI [44]: > 100 µM
TGI [45]: > 100 µM
TGI [46]: 97.1 µM
TGI [47]: > 100 µM
TGI [48]: 85.5 µM
TGI [49]: > 100 µM
TGI [50]: 38.4 µM
TGI [51]: 59.1 µM
TGI [52]: > 100 µM
TGI [53]: 41.4 µM
TGI [54]: > 100 µM
TGI [55]: > 100 µM
TGI [56]: > 100 µM
TGI [57]: > 100 µM
TGI [58]: 89.4 µM
TGI [59]: 33.1 µM

COc1ccc(OC)c(C2Cc3cnc4nc(N)nc(N)c4c3C2)c1 (configuration not stated)
TGI [1]: 49 µM
TGI [2]: > 100 µM
TGI [3]: 96.9 µM
TGI [4]: > 100 µM
TGI [5]: 87.5 µM
TGI [7]: 52.6 µM
TGI [8]: 55.7 µM
TGI [9]: 97.1 µM
TGI [10]: > 100 µM
TGI [11]: > 100 µM
TGI [12]: 28 µM
TGI [13]: > 100 µM
TGI [14]: 64.3 µM
TGI [15]: > 100 µM
TGI [16]: 79.8 µM
TGI [17]: 41.9 µM
TGI [18]: 65 µM
TGI [19]: 65.5 µM
TGI [20]: > 100 µM
TGI [21]: 42.2 µM
TGI [22]: > 100 µM
TGI [23]: 55.1 µM
TGI [24]: 89.9 µM
TGI [25]: 47.6 µM
TGI [26]: 53.8 µM
TGI [27]: 73.6 µM
TGI [28]: 33 µM
TGI [29]: 52.6 µM
TGI [30]: > 100 µM
TGI [31]: 51.5 µM
TGI [32]: 55.7 µM
TGI [33]: 47.3 µM
TGI [34]: 41.6 µM
TGI [35]: > 100 µM
TGI [36]: > 100 µM
TGI [37]: 93.7 µM
TGI [38]: 43.2 µM
TGI [39]: 94.7 µM
TGI [40]: > 100 µM
TGI [41]: > 100 µM
TGI [42]: > 100 µM
TGI [43]: > 100 µM
TGI [44]: > 100 µM
TGI [45]: > 100 µM
TGI [46]: 47.5 µM
TGI [47]: 47.3 µM
TGI [48]: > 100 µM
TGI [49]: 69.7 µM
TGI [50]: > 100 µM
TGI [51]: 56.8 µM
TGI [52]: 83.7 µM
TGI [53]: 40 µM
TGI [54]: > 100 µM
TGI [55]: 40.1 µM
TGI [56]: 44.9 µM
TGI [57]: 53.8 µM
TGI [58]: > 100 µM
TGI [59]: 50.2 µM

C[C@@H]1C[C@](O)([C@@H](C)Cl)C(=O)O[C@@H]2CCN3CC=C(COC(=O)[C@]1(C)O)[C@H]23
TGI [1]: > 100 µM
TGI [2]: > 100 µM
TGI [3]: > 100 µM
TGI [4]: > 10 µM
TGI [6]: > 100 µM
TGI [7]: > 100 µM
TGI [8]: > 100 µM
TGI [9]: > 100 µM
TGI [10]: > 100 µM
TGI [11]: > 100 µM
TGI [12]: > 100 µM
TGI [13]: > 100 µM
TGI [14]: > 100 µM
TGI [15]: > 10 µM
TGI [16]: > 100 µM
TGI [17]: > 100 µM
TGI [18]: > 100 µM
TGI [19]: > 100 µM
TGI [20]: > 100 µM
TGI [21]: > 100 µM
TGI [22]: > 10 µM
TGI [23]: > 100 µM
TGI [24]: > 100 µM
TGI [25]: > 100 µM
TGI [26]: > 100 µM
TGI [27]: > 10 µM
TGI [28]: > 100 µM
TGI [29]: > 100 µM
TGI [30]: > 10 µM
TGI [31]: > 100 µM
TGI [32]: > 100 µM
TGI [33]: > 100 µM
TGI [34]: > 100 µM
TGI [35]: > 100 µM
TGI [36]: > 100 µM
TGI [37]: > 100 µM
TGI [39]: > 100 µM
TGI [40]: > 100 µM
TGI [41]: > 100 µM
TGI [42]: > 100 µM
TGI [43]: > 10 µM
TGI [44]: > 100 µM
TGI [45]: > 100 µM
TGI [46]: > 100 µM
TGI [48]: > 100 µM
TGI [49]: > 100 µM
TGI [50]: > 100 µM
TGI [52]: > 100 µM
TGI [53]: > 100 µM
TGI [54]: > 100 µM
TGI [55]: > 100 µM
TGI [56]: > 100 µM
TGI [57]: > 100 µM
TGI [58]: > 100 µM
TGI [59]: > 100 µM
